The structures appear in SMILES notation.

Common to all, as to assay type: cell-based, mouse
The test system of assay [1] is β-galactosidase in CMV-LacZ C2C12 myoblasts. Description: CMV-LacZ secondary screen in C2C12 myoblasts (β-Gal stabilizing assay). The settings on record: for CMV-LACZ in Myoblasts (β-galactosidase activity relative to DMSO): CMV-LacZ C2C12 myoblasts; for CMV-LACZ in Myoblasts, value relative to DMSO: SU9516 analogs, C2C12 CMV-LacZ, N=2. In a few lines:
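A secondary screen identifies compounds that stabilize β-gal independently of the native promoter, using CMV-LacZ C2C12 cells. Curves span 0.5–40 μM at six levels, in duplicate.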

Assay [2] deals with α7 integrin (LacZ reporter in α7+/LacZ myotubes). Description: Myotube α7 integrin FDG assay (Burkin assay in myotubes, 96-well). The settings on record: for Burkin Assay in Myotubes, value relative to DMSO: SU9516 analogs, 96-well, N=3-6.
In assay [3] the test system is α7 integrin (LacZ reporter in α7βgal+/− myoblasts). The assay is described as follows: Myoblast α7+/LacZ integrin FDG assay (Burkin assay in myoblasts, 96-well). As to conditions: 96-well; for Burkin Assay in Myoblasts, signal relative to DMSO: α7+/LacZ myoblasts; for Burkin Assay in Myoblasts, value relative to DMSO: SU9516 analogs, N=3-6.
Assay [4] relates to β-galactosidase in CMV-LacZ C2C12 myotubes. Description: CMV-LacZ secondary screen in C2C12 myotubes (β-Gal stabilizing assay). The settings on record: for CMV-LACZ in Myotubes, signal relative to DMSO: C2C12 CMV-LacZ myotubes, fold relative to DMSO; for CMV-LACZ in Myotubes, value relative to DMSO: SU9516 analogs, C2C12 CMV-LacZ, N=2. The method in brief:
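Stable CMV-LacZ C2C12 clone; six-point curve 0.5–40 μM; duplicates.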

For `Cc1cccc(Sc2nc(-c3ccccc3)ccc2C#N)c1` [MLS000325736-01], the “CMV-LACZ in Myoblasts (β-galactosidase activity relative to DMSO)” value came out at 0.7862 in assay [1] (0.5 uM); 0.9135 in assay [1] (1 uM); 0.9758 in assay [1] (5 uM); 1.0696 in assay [1] (10 uM); 1.0111 in assay [1] (20 uM); 1.0537 in assay [1] (40 uM). Also, the “Burkin Assay in Myotubes, α7 integrin LacZ reporter signal relative to DMSO” value in assay [2] (0.5 uM) is recorded as 0.9135; in assay [2] (1 uM) it was 0.8017; in assay [2] (5 uM), 1.027; in assay [2] (10 uM), 1.168; in assay [2] (20 uM) it was 0.6582; in assay [2] (40 uM) it was 0.6972. Also, the “Burkin Assay in Myoblasts, signal relative to DMSO” value in assay [3] (0.5 uM) is 0.7757; in assay [3] (1 uM), 0.7875; in assay [3] (5 uM) it was 1.423; in assay [3] (10 uM) it was 1.17; in assay [3] (20 uM), 0.912; in assay [3] (40 uM), 0.8854. The “CMV-LACZ in Myotubes, signal relative to DMSO” value in assay [4] (0.5 uM) came to 0.9263; in assay [4] (1 uM) it was 0.8968; in assay [4] (5 uM), 0.9630; in assay [4] (10 uM), 0.9324; in assay [4] (20 uM), 0.8244; in assay [4] (40 uM), 0.9889.

As to `COc1ccc(C(=O)/C=C2/C(=O)Nc3ccccc32)cc1` [MLS001163848-01], the “CMV-LACZ in Myoblasts, value relative to DMSO” value in assay [1] (0.5 uM) came to 1.1146; in assay [1] (1 uM), 0.9620; in assay [1] (5 uM) it was 0.9336; in assay [1] (10 uM) it was 1.0762; in assay [1] (20 uM), 2.1030; in assay [1] (40 uM), 2.2215. Further, the “Burkin Assay in Myotubes, value relative to DMSO” value was found to be 1.0964 in assay [2] (0.5 uM); 1.045 in assay [2] (1 uM); 0.9587 in assay [2] (5 uM); 0.7469 in assay [2] (10 uM); 0.6878 in assay [2] (20 uM); 0.4876 in assay [2] (40 uM). Further, the “Burkin Assay in Myoblasts, value relative to DMSO” value in assay [3] (0.5 uM) was determined as 1.002; in assay [3] (1 uM), 0.8906; in assay [3] (5 uM) it was 0.4854; in assay [3] (10 uM), 0.3141; in assay [3] (20 uM), 0.297; in assay [3] (40 uM) it was 0.1444. Further, the “CMV-LACZ in Myotubes, value relative to DMSO” value turned out to be 1.2133 in assay [4] (0.5 uM); 0.9638 in assay [4] (1 uM); 1.1937 in assay [4] (5 uM); 4.2586 in assay [4] (10 uM); 6.7729 in assay [4] (20 uM); 6.8624 in assay [4] (40 uM).

As for `CC(C)(C)NC(=O)NC(=O)CN1CCN(Cc2ccccc2)CC1` [MLS001006302-01], the “CMV-LACZ in Myoblasts (β-galactosidase activity relative to DMSO)” value in assay [1] (0.5 uM) is recorded as 0.9343; in assay [1] (1 uM), 0.7663; in assay [1] (5 uM), 0.8911; in assay [1] (10 uM), 1.0767; in assay [1] (20 uM), 0.9502; in assay [1] (40 uM) it was 0.7646. In addition, the “Burkin Assay in Myotubes, α7 integrin LacZ reporter signal relative to DMSO” value in assay [2] (0.5 uM) is 0.9822; in assay [2] (1 uM), 0.9373; in assay [2] (5 uM) it was 1.039; in assay [2] (10 uM), 1.212; in assay [2] (20 uM) it was 0.7835; in assay [2] (40 uM) it was 1.078. For the same molecule, the “Burkin Assay in Myoblasts, signal relative to DMSO” value in assay [3] (0.5 uM) is 1.123; in assay [3] (1 uM) it was 0.9303; in assay [3] (5 uM) it was 0.9535; in assay [3] (10 uM) it was 1.172; in assay [3] (20 uM), 0.973; in assay [3] (40 uM) it was 0.9414. The “CMV-LACZ in Myotubes, signal relative to DMSO” value was 1.0229 in assay [4] (0.5 uM); 0.9143 in assay [4] (1 uM); 0.9398 in assay [4] (5 uM); 1.0122 in assay [4] (10 uM); 0.9010 in assay [4] (20 uM); 0.9720 in assay [4] (40 uM).

Turning to `C/C(=N\NC(=O)c1cc(C)oc1C)c1ccc2ccccc2c1` [MLS000912258-01], the “CMV-LACZ in Myoblasts (β-galactosidase activity relative to DMSO)” value was found to be 1.1073 in assay [1] (0.5 uM); 1.1693 in assay [1] (1 uM); 0.9071 in assay [1] (5 uM); 1.0171 in assay [1] (10 uM); 1.1074 in assay [1] (20 uM); 0.8621 in assay [1] (40 uM). Moreover, the “Burkin Assay in Myotubes, α7 integrin LacZ reporter signal relative to DMSO” value in assay [2] (0.5 uM) came to 0.9264; in assay [2] (1 uM) it was 0.8571; in assay [2] (5 uM), 1.144; in assay [2] (10 uM), 0.9631; in assay [2] (20 uM), 0.877; in assay [2] (40 uM), 0.7193. The “Burkin Assay in Myoblasts, signal relative to DMSO” value in assay [3] (0.5 uM) amounted to 0.8436; in assay [3] (1 uM) it was 0.9089; in assay [3] (5 uM), 1.2722; in assay [3] (10 uM), 0.8425; in assay [3] (20 uM) it was 0.6351; in assay [3] (40 uM) it was 0.3725. The “CMV-LACZ in Myotubes, signal relative to DMSO” value was determined as 0.9743 in assay [4] (0.5 uM); 0.9162 in assay [4] (1 uM); 1.1251 in assay [4] (5 uM); 1.2253 in assay [4] (10 uM); 1.0760 in assay [4] (20 uM); 1.0350 in assay [4] (40 uM).

Source of the values: US9980943B2, “Methods of treating muscular dystrophy” (BOARD OF REGENTS OF THE NEVADA SYSTEM OF HIGHER EDUCATION, …, priority 2013, dated 2018).
